In ChEMBL document CHEMBL1158870, “Antitumor agents. 180. Chemical Studies and cytotoxic evaluation of cumingianosides and cumindysoside A, antileukemic triterpene glucosides with a 14,18-cycloapotirucallane skeleton” (1997):

Columns and labels:
CCRF-CEM = assay: Cytotoxicity against human CCRF-CEM cells by SRB assay; type: functional
[1] = Cytotoxicity against human HL60(TB) cells by SRB assay; type: functional, HL-60(TB); details: HL-60
K562 = assay: Cytotoxicity against human K562 cells by SRB assay; type: functional
MOLT-4 = assay: Cytotoxicity against human MOLT4 cells by SRB assay; type: functional
RPMI-8226 = assay: Cytotoxicity against human RPMI8226 cells by SRB assay; type: functional
SR = assay: Cytotoxicity against human SR cells by SRB assay; type: functional
A549 = assay: Cytotoxicity against human A549 cells by SRB assay; type: functional
EKVX = assay: Cytotoxicity against human EKVX cells by SRB assay; type: functional
HOP-62 = assay: Cytotoxicity against human HOP62 cells by SRB assay; type: functional
HOP-92 = assay: Cytotoxicity against human HOP92 cells by SRB assay; type: functional
NCI-H226 = assay: Cytotoxicity against human NCI-H226 cells by SRB assay; type: functional
NCI-H23 = assay: Cytotoxicity against human NCI-H23 cells by SRB assay; type: functional
NCI-H322M = assay: Cytotoxicity against human NCI-H322M cells by SRB assay; type: functional
NCI-H460 = assay: Cytotoxicity against human NCI-H460 cells by SRB assay; type: functional
NCI-H522 = assay: Cytotoxicity against human NCI-H522 cells by SRB assay; type: functional
COLO 205 = assay: Cytotoxicity against human COLO205 cells by SRB assay; type: functional
HCC 2998 = assay: Cytotoxicity against human HCC2998 cells by SRB assay; type: functional
HCT-116 = assay: Cytotoxicity against human HCT116 cells by SRB assay; type: functional
HCT-15 = assay: Cytotoxicity against human HCT15 cells by SRB assay; type: functional
HT-29 = assay: Cytotoxicity against human HT29 cells by SRB assay; type: functional
KM12 = assay: Cytotoxicity against human KM12 cells by SRB assay; type: functional
SW-620 = assay: Cytotoxicity against human SW620 cells by SRB assay; type: functional
SF-268 = assay: Cytotoxicity against human SF268 cells by SRB assay; type: functional
SF-295 = assay: Cytotoxicity against human SF295 cells by SRB assay; type: functional
SNB-19 = assay: Cytotoxicity against human SNB19 cells by SRB assay; type: functional
SNB-75 = assay: Cytotoxicity against human SNB75 cells by SRB assay; type: functional
U-251 = assay: Cytotoxicity against human U251 cells by SRB assay; type: functional
LOX IMVI = assay: Cytotoxicity against human LOXIMVI cells by SRB assay; type: functional
Malme-3M = assay: Cytotoxicity against human MALME-3M cells by SRB assay; type: functional
M14 = assay: Cytotoxicity against human M14 cells by SRB assay; type: functional
SK-MEL-2 = assay: Cytotoxicity against human SK-MEL-2 cells by SRB assay; type: functional
SK-MEL-28 = assay: Cytotoxicity against human SK-MEL-28 cells by SRB assay; type: functional
SK-MEL-5 = assay: Cytotoxicity against human SK-MEL-5 cells by SRB assay; type: functional
UACC-257 = assay: Cytotoxicity against human UACC257 cells by SRB assay; type: functional
UACC-62 = assay: Cytotoxicity against human UACC62 cells by SRB assay; type: functional
IGROV-1 = assay: Cytotoxicity against human IGROV1 cells by SRB assay; type: functional
OVCAR-3 = assay: Cytotoxicity against human OVCAR-3 cells by SRB assay; type: functional
OVCAR-4 = assay: Cytotoxicity against human OVCAR4 cells by SRB assay; type: functional
OVCAR-5 = assay: Cytotoxicity against human OVCAR5 cells by SRB assay; type: functional
OVCAR-8 = assay: Cytotoxicity against human OVCAR8 cells by SRB assay; type: functional
SK-OV-3 = assay: Cytotoxicity against human SKOV3 cells by SRB assay; type: functional
[2] = Cytotoxicity against human 786-O cells by SRB assay; type: functional; details: 786-0
A498 = assay: Cytotoxicity against human A498 cells by SRB assay; type: functional
ACHN = assay: Cytotoxicity against human ACHN cells by SRB assay; type: functional
CAKI-1 = assay: Cytotoxicity against human Caki1 cells by SRB assay; type: functional
RXF 393 = assay: Cytotoxicity against human RXF393 cells by SRB assay; type: functional
SN12C = assay: Cytotoxicity against human SN12C cells by SRB assay; type: functional
UO-31 = assay: Cytotoxicity against human UO31 cells by SRB assay; type: functional
PC-3 = assay: Cytotoxicity against human PC3 cells by SRB assay; type: functional
DU-145 = assay: Cytotoxicity against human DU145 cells by SRB assay; type: functional
MCF7 = assay: Cytotoxicity against human MCF7 cells by SRB assay; type: functional
[3] = Cytotoxicity against human MCF7/ADR cells by SRB assay; type: functional; details: NCI/ADR-RES
MDA-MB-231 = assay: Cytotoxicity against human MDA-MB-231 cells by SRB assay; type: functional
[4] = Cytotoxicity against human Hs 578T cells by SRB assay; type: functional
MDA-MB-435 = assay: Cytotoxicity against human MDA-MB-435 cells by SRB assay; type: functional
MDA-N = assay: Cytotoxicity against human MDA-N cells by SRB assay; type: functional
BT-549 = assay: Cytotoxicity against human BT549 cells by SRB assay; type: functional
T47D = assay: Cytotoxicity against human T47D cells by SRB assay; type: functional
Leukemia cell = assay: Cytotoxicity against human Leukemia cells by SRB assay; type: functional
NSCLC = assay: Cytotoxicity against human NSCLC cells by SRB assay; type: functional
[5] = Cytotoxicity against human Colon cancer cells by SRB assay; type: functional; details: Cancer cell lines
[6] = Cytotoxicity against human CNS cancer cells by SRB assay; type: functional; details: Cancer cell lines
[7] = Cytotoxicity against human melanoma cells by SRB assay; type: functional; details: Melanoma cell
[8] = Cytotoxicity against human ovarian cancer cells by SRB assay; type: functional; details: Cancer cell lines
[9] = Cytotoxicity against human prostate cancer cells by SRB assay; type: functional; details: Cancer cell lines
[10] = Cytotoxicity against human breast cancer cells by SRB assay; type: functional; details: Cancer cell lines
[11] = Cytotoxicity against human renal cancer cells by SRB assay; type: functional; details: Cancer cell lines

C=C(C)[C@@H](O)[C@H](O)C[C@H](C)[C@@H]1CC[C@]2(C)C1=CC[C@@H]1[C@@]3(C)CC[C@@H](OC(C)=O)C(C)(C)[C@@H]3C[C@@H](O[C@@H]3O[C@H](COC(C)=O)[C@@H](O)[C@H](O)[C@H]3O)[C@]12C
GI50 (CCRF-CEM): 2.24 µM | GI50 [1]: 2.09 µM | GI50 (K562): 1.91 µM | GI50 (MOLT-4): 2.29 µM | GI50 (RPMI-8226): 1.91 µM | GI50 (SR): 1.91 µM | GI50 (A549): 3.24 µM | GI50 (EKVX): 3.16 µM | GI50 (HOP-62): 2.63 µM | GI50 (HOP-92): 2.34 µM | GI50 (NCI-H226): 3.02 µM | GI50 (NCI-H23): 4.17 µM | GI50 (NCI-H322M): 1.86 µM | GI50 (NCI-H460): 2.45 µM | GI50 (NCI-H522): 1.82 µM | GI50 (COLO 205): 2.04 µM | TGI (COLO 205): 3.5 µM | GI50 (HCC 2998): 0.0776 µM | TGI (HCC 2998): 0.9 µM | GI50 (HCT-116): 1.86 µM | TGI (HCT-116): 3.5 µM | GI50 (HCT-15): 2.95 µM | TGI (HCT-15): 10 µM | GI50 (HT-29): 1.91 µM | TGI (HT-29): 3.8 µM | GI50 (KM12): 1.58 µM | TGI (KM12): 3 µM | GI50 (SW-620): 3.02 µM | TGI (SW-620): 10.4 µM | GI50 (SF-268): 2.82 µM | GI50 (SF-295): 2.19 µM | GI50 (SNB-19): 3.89 µM | GI50 (SNB-75): 1.86 µM | GI50 (U-251): 2.19 µM | GI50 (LOX IMVI): 1.62 µM | GI50 (Malme-3M): 1.58 µM | GI50 (M14): 2.09 µM | GI50 (SK-MEL-2): 2 µM | GI50 (SK-MEL-28): 2.34 µM | GI50 (SK-MEL-5): 1.91 µM | GI50 (UACC-257): 2.75 µM | GI50 (UACC-62): 1.51 µM | GI50 (IGROV-1): 2.34 µM | GI50 (OVCAR-3): 1.86 µM | GI50 (OVCAR-4): 2.95 µM | GI50 (OVCAR-5): 1.91 µM | GI50 (OVCAR-8): 3.63 µM | GI50 (SK-OV-3): 2.88 µM | GI50 [2]: 3.72 µM | GI50 (A498): 3.89 µM | GI50 (ACHN): 1.91 µM | GI50 (CAKI-1): 2.63 µM | GI50 (RXF 393): 2.09 µM | GI50 (SN12C): 3.09 µM | GI50 (UO-31): 3.89 µM | GI50 (PC-3): 2.14 µM | GI50 (DU-145): 2.57 µM | GI50 (MCF7): 2.75 µM | GI50 [3]: 16.2 µM | GI50 (MDA-MB-231): 1.86 µM | GI50 [4]: 2.34 µM | GI50 (MDA-MB-435): 1.95 µM | GI50 (MDA-N): 2.34 µM | GI50 (BT-549): 3.39 µM | GI50 (T47D): 2.57 µM | TGI (Leukemia cell): 5.1 µM | TGI (NSCLC): 9 µM | TGI [5]: 5 µM | TGI [6]: 9.5 µM | TGI [7]: 4.2 µM | TGI [8]: 7.4 µM | TGI [9]: 7 µM | TGI [10]: 10.7 µM | TGI [11]: 9.7 µM

CC(=O)OC[C@H]1O[C@@H](O[C@@H]2C[C@H]3C(C)(C)[C@H](OC(C)=O)CC[C@]3(C)[C@H]3CCC4=C([C@@H](C)C[C@@H](O)[C@H](O)C(C)(C)O)CC[C@@]4(C)[C@@]32C)[C@H](O)[C@@H](O)[C@@H]1O
GI50 (CCRF-CEM): 15.8 µM | GI50 [1]: 12.9 µM | GI50 (K562): 12.6 µM | GI50 (MOLT-4): 13.2 µM | GI50 (RPMI-8226): 10.5 µM | GI50 (SR): 12.3 µM | GI50 (A549): 19.1 µM | GI50 (EKVX): 17 µM | GI50 (HOP-62): 16.2 µM | GI50 (HOP-92): 14.5 µM | GI50 (NCI-H226): 17.4 µM | GI50 (NCI-H23): 16.6 µM | GI50 (NCI-H322M): 17.4 µM | GI50 (NCI-H460): 15.8 µM | GI50 (NCI-H522): 13.2 µM | GI50 (COLO 205): 15.8 µM | TGI (COLO 205): 30.2 µM | GI50 (HCC 2998): 12 µM | TGI (HCC 2998): 25.2 µM | GI50 (HCT-116): 14.1 µM | TGI (HCT-116): 27.2 µM | GI50 (HCT-15): 17 µM | TGI (HCT-15): 30.8 µM | GI50 (HT-29): 16.6 µM | TGI (HT-29): 30.1 µM | GI50 (KM12): 22.4 µM | TGI (KM12): 37.1 µM | GI50 (SW-620): 17 µM | TGI (SW-620): 30.7 µM | GI50 (SF-268): 16.6 µM | GI50 (SF-295): 17.4 µM | GI50 (SNB-19): 14.5 µM | GI50 (SNB-75): 13.2 µM | GI50 (U-251): 6.03 µM | GI50 (LOX IMVI): 12.6 µM | GI50 (Malme-3M): 16.6 µM | GI50 (M14): 17.4 µM | GI50 (SK-MEL-2): 16.2 µM | GI50 (SK-MEL-28): 17 µM | GI50 (SK-MEL-5): 16.2 µM | GI50 (UACC-257): 16.2 µM | GI50 (UACC-62): 12.6 µM | GI50 (IGROV-1): 16.2 µM | GI50 (OVCAR-3): 14.5 µM | GI50 (OVCAR-4): 17 µM | GI50 (OVCAR-5): 17.8 µM | GI50 (OVCAR-8): 15.8 µM | GI50 (SK-OV-3): 17.8 µM | GI50 [2]: 18.2 µM | GI50 (A498): 17.4 µM | GI50 (ACHN): 17.8 µM | GI50 (CAKI-1): 15.5 µM | GI50 (RXF 393): 14.8 µM | GI50 (SN12C): 16.2 µM | GI50 (UO-31): 18.2 µM | GI50 (PC-3): 14.5 µM | GI50 (DU-145): 17.8 µM | GI50 (MCF7): 2.88 µM | GI50 [3]: 20.4 µM | GI50 (MDA-MB-231): 11.5 µM | GI50 [4]: 15.1 µM | GI50 (MDA-MB-435): 15.8 µM | GI50 (MDA-N): 17 µM | GI50 (BT-549): 15.5 µM | GI50 (T47D): 16.6 µM | TGI (Leukemia cell): 32.2 µM | TGI (NSCLC): 30.3 µM | TGI [5]: 30.2 µM | TGI [6]: 28.2 µM | TGI [7]: 29.1 µM | TGI [8]: 30.4 µM | TGI [9]: 29.9 µM | TGI [10]: 28.9 µM | TGI [11]: 30.8 µM
